Measured values published in patent US9993570B2, “Radiolabeled tracers for poly (ADP-ribose) polymerase-1 (PARP-1), methods and uses therefor” (Washington University, priority 2014, dated 2018).

What was measured:
[1] = Metabolic stability of [18F]WC-4-138 in mice (percent parent by HPLC); type: in vivo; settings: C57BL/6J mice
Method: In these experiments, the metabolic stability of [^18]-WC-4-138 was assessed after injecting 400 μCi into the tail veins of adult male C57BL/6J mice (Jackson Laboratory). Mice were sacrificed by cervical dislocation 5 or 30 minutes post-injection. […] The plasma was separated from the red blood cells by centrifugation at 14000 rpm. Plasma (100 μl) was mixed with acetonitrile at a 1:1.5 ratio and centrifuged at 14000 rpm. Radioactivity associated with the red blood cell pellet, whole plasma, and acetonitrile-soluble and insoluble fractions was measured. The liver of each animal was also collected at the indicated times and frozen on dry ice. Livers were homogenized in 2 ml acetonitrile and 1 ml of the homogenized liver was centrifuged at 14000 rpm. Radioactivity associated with the supernatant and pellet was measured. Acetonitrile-soluble plasma or liver supernatant (100 μl) was mixed at a 1:1 ratio with water and separated by reverse phase HPLC. The parent compound was also separated by HPLC as a reference. The radioactivity associated with each HPLC fraction was measured. The percent parent compound of each sample was calculated as the portion radioactivity associated with the HPLC fractions expected to contain the parent compound.

[2] = test system: head and neck cell lines SCC1 and SCC25; experiment: [18F]WC-4-138 uptake in cell culture, head and neck lines; type: cell-based; settings: SCC1 and SCC25, incubation 5, 30 or 60 minutes, normalized to protein
Method: (§1) In these experiments, the head and neck squamous cell carcinoma lines SCC1, SCC15, and SCC25 (ATCC) were propagated in Dulbecco's Modified Eagle's Medium (DMEM, Gibco) supplemented with 10% Fetal Bovine Serum (FBS, Gibco), Penicillin-Streptomycin (P/S, Gibco), and 100 ng/ml hydrocortisone (Sigma-Aldrich). The small cell lung cancer lines NCI-h69 and NCI-h82 (ATCC) were propagated m RPMI Medium (Gibco) supplemented with 10% FBS and 1% P/S. The human breast cancer cell line MDA-MB-231 (ATCC) was propagated in Eagle's Minimum Essential Medium (Gibco) supplemented with 5% FBS, 2% Vitamins for MEM (Gibco), 1% 200 mM L-glutamine (Gibco), 1% 10 mM Non-Essential Amino Acid (NEAA, Gibco).
For each experimental replicate, approximately 1 μCi of [^18F]WC-4-138 was diluted in 1 ml of cell culture medium and added to 10^6 cells. After 5, 30, or 60 minutes, the medium was collected and cells were washed twice in 0.7 ml Phosphate Buffered Saline (PBS, Gibco). Adherent cells were collected by scraping the cell culture dish and transferring to a microfuge tube. Radioactivity was measured in the collected medium, PBS, or cell pellets. Protein from the cell pellet was quantified using a […]. All data were decay-corrected and normalized to total protein quantity in the cell pellet. For drug treatment studies, cells were incubated with 10 μM Olaparib or Iniparib twenty-hours prior to incubation with [^18F]WC-4-138.
The head and neck cell lines SCC1 and SCC25 constitutively take up small amounts of tracer, registering as 0.001-0.002 μCi/μg in the cell pellet (FIG. 5A). […] Radioactivity was measured in head and neck squamous cell cancer (HNSCC) lines (SCC1 and SCC25) or small cell lung cancer (SCLC) lines (NCI-h69 and NCI-h82) after incubation with [^18F]WC-4-138 for 5, 30, or 60 minutes (n=3 at each time point). […] PARP activity was measured in HNSCC or lung SCLC cells. (FIG. 5C-D) [^18F]WC-4-138 uptake was measured in HNSCC cell lines treated with olaparib or iniparib. […]

[3] = test system: Lung cell lines NCI-h69 and NCI-h82; experiment: [18F]WC-4-138 uptake in cell culture, small cell lung cancer lines; type: cell-based; settings: NCI-h69 and NCI-h82, incubation 5, 30 or 60 minutes, normalized to protein
Method: as §1
For each experimental replicate, approximately 1 μCi of [^18F]WC-4-138 was diluted in 1 ml of cell culture medium and added to 10^6 cells. […] Radioactivity was measured in the collected medium, PBS, or cell pellets. Protein from the cell pellet was quantified using a […]. All data were decay-corrected and normalized to total protein quantity in the cell pellet. […]
The head and neck cell lines SCC1 and SCC25 constitutively take up small amounts of tracer, registering as 0.001-0.002 μCi/μg in the cell pellet (FIG. 5A). […] PARP activity was measured in HNSCC or lung SCLC cells. […]

With `O=C1NCCn2c(-c3ccc(OCC[18F])cc3)nc3cccc1c32` [[^18F]12] the “percent parent compound relative to the reference compound, blood” value ([1]; 5 minutes post-injection) was 50%, the “percent parent compound relative to the reference compound, liver” value ([1]; 5 minutes post-injection) was “about 80%” and the “percent parent compound relative to the reference compound, blood” value ([1]; 30 minutes post-injection) was “about 10%”. The “percent parent compound relative to the reference compound, liver” value ([1]; 30 minutes post-injection) was “about 70%”, the “tracer uptake in the cell pellet” value [2] was 0.001-0.002 μCi/μg and the “tracer uptake in the cell pellet” value [3] was 0.004-0.006 μCi/μg.
